# Publication PMC7761830, “Structure-Based Virtual Screening of Ultra-Large Library Yields Potent Antagonists for a Lipid GPCR” (Biomolecules, 2020)
# Key:
# wild-type CysLT1R = target: T1, wild-type CysLT1R (Homo sapiens, UniProt Q9Y271); assay: IP1 production assay, antagonist mode, co-stimulation with EC80 LTD4; format: cell-based; conditions: for inhibition at 30 µM: HEK293, compound 30 µM, LTD4 at EC80, HEK293, wild-type CysLT1R, read-out: inhibition of LTD4-induced IP1 production, single-concentration screen; for Emax: HEK293, read-out: CysLT1R (LTD4) % Max Inhibition ± SEM
# T1 construct: expressed in transfected cells; host or cells: HEK293 (ATCC CRL-1573), transient transfection with Lipofectamine 3000
# T1 sequence (Q9Y271 1-337): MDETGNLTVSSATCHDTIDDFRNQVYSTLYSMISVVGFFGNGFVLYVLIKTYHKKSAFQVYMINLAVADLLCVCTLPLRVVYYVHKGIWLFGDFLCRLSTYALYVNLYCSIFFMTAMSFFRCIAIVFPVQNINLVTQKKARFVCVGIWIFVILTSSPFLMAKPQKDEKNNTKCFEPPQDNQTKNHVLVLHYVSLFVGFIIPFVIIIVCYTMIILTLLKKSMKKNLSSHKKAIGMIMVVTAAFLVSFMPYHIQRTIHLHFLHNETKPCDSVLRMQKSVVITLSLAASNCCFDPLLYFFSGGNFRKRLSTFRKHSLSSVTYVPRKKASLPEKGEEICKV
# Experimental: (§1) For this assay, we used the Cisbio IP-One kit as previously described. […] At 48 h post-transfection, the media was removed and the cells were washed with fresh Hank’s Balanced Salt Solution (HBSS). […] After compound stimulation, the cells were incubated for 1 h at 37 °C and stimulated with IP1-D2 and Ab-Crypt reagents in Lysis Buffer. The cells were then incubated at room temperature for an additional hour. […] Normalized data were plotted using either the three-parameter or four-parameter EC50/IC50 fits of GraphPad Prism 8 (San Diego). […] Data represent the means ± SEM of at least three independent experiments performed in quadruplicate.
# wild-type CysLT2R = target: T2, wild-type CysLT2R (Homo sapiens, UniProt Q9NS75); assay: as above; format: cell-based; conditions: for inhibition at 30 µM: HEK293, compound 30 µM, LTD4 at EC80, HEK293, wild-type CysLT2R, read-out: inhibition of LTD4-induced IP1 production, single-concentration screen; for Emax: HEK293, read-out: CysLT2R (LTD4) % Max Inhibition ± SEM
# T2 construct: expressed in transfected cells; host or cells: HEK293 (ATCC CRL-1573), transient transfection with Lipofectamine 3000
# T2 sequence (Q9NS75 1-346): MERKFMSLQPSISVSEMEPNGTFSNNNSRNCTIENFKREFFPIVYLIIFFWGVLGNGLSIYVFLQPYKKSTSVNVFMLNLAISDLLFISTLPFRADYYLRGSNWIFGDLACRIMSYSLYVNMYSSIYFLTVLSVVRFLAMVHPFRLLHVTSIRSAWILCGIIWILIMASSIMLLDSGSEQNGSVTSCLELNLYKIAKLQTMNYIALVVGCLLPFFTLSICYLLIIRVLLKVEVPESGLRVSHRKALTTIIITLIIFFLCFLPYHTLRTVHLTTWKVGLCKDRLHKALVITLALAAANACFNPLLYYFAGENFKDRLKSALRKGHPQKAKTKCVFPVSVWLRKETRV
# Experimental: as §1
remaining activity at 30 µM (wild-type CysLT1R),remaining activity at 30 µM (wild-type CysLT2R),other results,Compound
81.8%,84.9%,,O=C(Cc1cccc(OCc2cccnc2)c1)Nc1cccc(-n2ccc(C(=O)O)n2)c1 [BRI-12414]
62.6%,88.7%,,Cc1cccn2cc(-c3cccc(NC(=O)Cn4c(=O)[nH]c(=O)c5ccccc54)c3)nc12 [BRI-12438]
74.5%,51.7%,,O=C(O)CNC(=O)c1ccc(NC(=O)CCn2cccc2)cc1 [BRI-12442]
76.2%,62.7%,,O=C(O)CNC(=O)c1ccc(NS(=O)(=O)c2csc(-c3ccc(Cl)cc3)n2)cc1 [BRI-12433]
74.3%,90.5%,,Cc1ccc(-c2nnc(SCC(=O)NC(N)=O)nc2-c2ccc(C)cc2)cc1 [BRI-12360]
77.9%,86.5%,,Cn1cc(S(=O)(=O)N[C@@H]2CC[C@H](C(=O)O)C2)cc1C(N)=O [BRI-12303]
87.4%,70%,,O=C(O)CCC1CCCCN1C(=O)C1CCc2ncncc2C1 (centres unmarked) [BRI-12302]
91%,90%,,COc1ccc(C2=NN(C(=O)CCC(=O)O)C(c3cccs3)C2)c(O)c1 (centres unmarked) [BRI-12316]
88.6%,110%,,O=C(O)CNC(=O)Cc1ccc(NC(=O)c2n[nH]c3ccccc23)cc1 [BRI-12313]
73.4%,87.8%,,O=C(O)c1cc(S(=O)(=O)NCCc2ccc(Cl)cc2)ccc1O [BRI-12352]
77.1%,78.1%,,Cc1ccc2c(CC(=O)N3CCN(C(=O)c4ccc(C(N)=O)o4)CC3)c[nH]c2c1 [BRI-12462]
69.4%,53.8%,,O=C(NCC1(O)CN(C(=O)c2ccc(=O)[nH]c2)C1)c1ccc2c(c1)CCC2 [BRI-12467]
96.1%,68.2%,,Cc1cnnn1-c1ccc(NC(=O)c2cccc(NC(=O)CCCc3cccs3)c2)cc1 [BRI-12444]
86.4%,89.2%,,O=C(O)CNC(=O)c1ccc(NC(=O)c2cc3ccccn3c2)cc1 [BRI-12317]
81.2%,57.8%,,Cc1nonc1CC(=O)NC1(CNC(=O)c2cc3occc3s2)CCC1 [BRI-12463]
80.5%,100%,,O=C(O)CNC(=O)c1ccc(NS(=O)(=O)c2cccs2)cc1 [BRI-12323]
81%,76.9%,,COc1ccc(N(CCC(=O)O)S(=O)(=O)c2csc(-c3ccc(F)cc3)n2)cc1 [BRI-12432]
68.4%,79.8%,,Cc1cccc(-c2nnc(SCc3ccc(C(N)=O)cc3)n2CC(=O)O)c1 [BRI-12350]
73.3%,62.3%,,O=C(NCC(O)c1cccc(OCc2ccccc2)c1)c1cc(=O)[nH]c2ccc(F)cc12 (centres unmarked) [BRI-12409]
69.5%,61.4%,,O=C(Cn1c(=O)[nH]c(=O)c2ccccc21)N1CCc2[nH]c3ccc(F)cc3c2C1 [BRI-12341]
77.3%,92.1%,,CC1CC1C(=O)NCCC(=O)Nc1cccc(Cl)c1-n1cncn1 (centres unmarked) [BRI-12336]
96.7%,91.2%,,O=C(c1ccc2nnnn2c1)N1CC=C(c2c[nH]c3ccccc23)CC1 [BRI-12332]
54.5%,77.1%,inhibition at 30 µM (wild-type CysLT1R): ≥ 50%; Emax (wild-type CysLT1R): 46 ± 20%,Cc1ccccc1Nc1nc2sc(C(=O)NCCc3nnc4n3CCNC4=O)cc2s1 [BRI-12435]
77.3%,91.6%,,O=C(O)CCC1CCCCN1C(=O)Cc1c[nH]c2cc(F)ccc12 (centres unmarked) [BRI-12310]
75.3%,101%,,O=C(CC1SC(c2cc3ccccc3oc2=O)=NC1=O)Nc1ccc(F)cc1 (centres unmarked) [BRI-12345]

remaining activity at 30 µM (wild-type CysLT1R),remaining activity at 30 µM (wild-type CysLT2R),other results,Compound
90.1%,66.4%,,CC1(C(=O)Nc2ccc(C(=O)NCCC(=O)O)cc2)CCOCC1 [BRI-12476]
86.6%,67.7%,,CC(C)(C)n1nnc(COC(=O)C2OCCc3ccccc32)n1 (centres unmarked) [BRI-12445]
79.6%,68.4%,,CC(C)c1cc(C(=O)Nc2ccc(C(=O)NCC(=O)O)cc2)nn1C [BRI-12406]
96.3%,65.2%,,O=C(O)CN(CC(=O)O)S(=O)(=O)Cc1cc(Cl)cc(Cl)c1 [BRI-12456]
82%,99.8%,,CC(C)c1c(C(=O)Nc2ccc3[nH]c(=O)[nH]c3c2)cnn1-c1ccccn1 [BRI-12339]
103%,60.8%,,CC(CNS(=O)(=O)c1csc(-c2ccc(F)cc2)n1)C(=O)O (centres unmarked) [BRI-12464]
90.3%,59.5%,,Cc1ccc(C(=O)Nc2ccc(C(=O)NCC(=O)O)cc2)c(O)c1 [BRI-12428]
74.1%,88.2%,,CC(=O)Nc1ccccc1OS(=O)(=O)c1cccc2cc(C)cnc12 [BRI-12318]
79.3%,71%,,C[S+]([O-])Cc1cccc(NC(=O)CC2(C(=O)O)Cc3ccccc3C2)c1 (centres unmarked) [BRI-12326]
95.8%,66.4%,,CCC(=O)Nc1ccc(S(=O)(=O)NC(C)(C)CC(=O)O)cc1 [BRI-12472]
82.9%,65.9%,,O=C(NCCc1c[nH]c2cc(Cl)ccc12)c1ccc(NC2=NS(=O)(=O)c3ccccc32)cc1 [BRI-12478]
84.2%,79.8%,,Cc1onc(N)c1S(=O)(=O)Nc1ccc(N2CCCC2)cc1C(=O)O [BRI-12425]
67.5%,67.8%,,O=C(O)CC1CN(S(=O)(=O)C=Cc2ccc(Cl)cc2)c2ccccc21 (centres unmarked) [BRI-12449]
87.8%,95.1%,,O=C(NC1CCCC1)c1ccc(NC(=O)C2C3C=CC(C3)C2C(=O)O)cc1 (centres unmarked) [BRI-12321]
68.5%,73.4%,,Cn1cc(C(N)=O)c(NC(=O)CCc2cccc(C(F)(F)F)c2)n1 [BRI-12327]
66.4%,95.5%,,O=C1CCc2cc(NC(=O)C(=O)NCCc3ccc4c(c3)OCO4)ccc2N1 [BRI-12338]
84.5%,82.3%,,COc1ccccc1OCc1ccc(C(=O)N[C@@H](CC(=O)O)c2ccc(Cl)cc2)o1 [BRI-12443]
87.8%,87.4%,,O=C(O)[C@@H]1CC[C@H](C(=O)Nc2cccc(-c3nc4ccccc4[nH]3)c2)C1 [BRI-12309]
76.4%,78.4%,,CC(=O)c1ccc(OCC(=O)NC(CC(=O)O)c2cccs2)cc1 (centres unmarked) [BRI-12319]
79.5%,92.5%,,CN(C(=O)c1ccc(C(=O)Nc2ccsc2C(N)=O)cc1)c1ccccc1 [BRI-12430]
71.7%,81.2%,,CC(Sc1n[nH]c(=O)n1C1CC1)C(=O)c1c[nH]c2ccccc12 (centres unmarked) [BRI-12342]
45.2%,46.7%,"Ki (wild-type CysLT1R): 0.59 ± 0.12 µM; inhibition at 30 µM (wild-type CysLT1R): ≥ 50%; Emax (wild-type CysLT1R): 64 ± 7%; extent of inhibition of LTD4-mediated response at CysLT1R (in words) (wild-type CysLT1R; antagonist mode, 1.5 to 100 µM): partial antagonism; inhibition at 30 µM (wild-type CysLT2R): ≥ 50%; Emax (wild-type CysLT2R): 18 ± 9%",NS(=O)(=O)c1cncc(-c2noc(CN(Cc3ccccc3)c3ccccc3)n2)c1 [BRI-12410]
66.8%,40.2%,inhibition at 30 µM (wild-type CysLT2R): ≥ 50%; Emax (wild-type CysLT2R): 8 ± 4%,Cn1nc(C2CC2)nc1CC(=O)Nc1ccc(N2CCNC2=O)cc1 [BRI-12402]
85.7%,48.1%,,O=C(Nc1ccccc1C(=O)N1CCn2ncnc2C1)c1ccc(Cl)cc1 [BRI-12419]
89.7%,68.2%,,CC(O)CN(C(=O)Nc1ccc2c(c1)CCCC2=O)C1CC1 (centres unmarked) [BRI-12423]
